Measurements taken from US9969694B2, “N-(arylalkyl)-N′-pyrazolyl-urea, thiourea, guanidine and cyanoguanidine compounds as TrkA kinase inhibitors” (Array BioPharma Inc., priority 2012, dated 2018).

What was measured:
Assay in all cases: Off-Target Kinase Profiling
Format in all cases: biochemical
Conditions in all cases: 10 μM; ATP near Km
AKT3 = target: T1, AKT3 (Homo sapiens, UniProt Q9Y243)
T1 construct: purchased Millipore (KinaseProfiler service)
How it was run: (§1)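 10 μM inhibitor, two replicates, ATP near Km for the given kinase. Result given as % of control activity, averaged.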

ALK4 = target: T2, ALK4 (Homo sapiens, UniProt P36896)
T2 construct: purchased Millipore (KinaseProfiler service)
How it was run: as §1

Abl2 = target: T3, Abl2 (Homo sapiens, UniProt P42684)
T3 construct: purchased Millipore (KinaseProfiler service)
How it was run: as §1

CDK5/p35 = target: T4, CDK5/p35 (Homo sapiens, UniProt Q00535)
T4 construct: purchased Millipore, Inc. (KinaseProfiler service)
How it was run: as §1

CDK6/cyclinD3 = target: T5, CDK6/cyclinD3 (Homo sapiens, UniProt Q00534)
T5 construct: purchased Millipore, Inc. (KinaseProfiler service)
How it was run: as §1

CDK7/cyclinH/MAT1 = target: T6, CDK7/cyclinH/MAT1 (Homo sapiens, UniProt P50613)
T6 construct: purchased Millipore, Inc. (KinaseProfiler service)
How it was run: as §1

CHK2 = target: T7, CHK2 (Homo sapiens, UniProt O96017)
T7 construct: purchased Millipore, Inc. (KinaseProfiler service)
How it was run: as §1

CK1gamma3 = target: T8, CK1gamma3 (Homo sapiens, UniProt Q9Y6M4)
T8 construct: purchased Millipore, Inc. (KinaseProfiler service)
How it was run: as §1

DAPK1 = target: T9, DAPK1 (Homo sapiens, UniProt P53355)
T9 construct: purchased Millipore, Inc. (KinaseProfiler service)
How it was run: as §1

DAPK3 = target: T10, DAPK3 (Homo sapiens, UniProt O43293)
T10 construct: purchased Millipore, Inc. (KinaseProfiler service)
How it was run: as §1

EphA1 = target: T11, EphA1 (Homo sapiens, UniProt P21709)
T11 construct: purchased Millipore, Inc. (KinaseProfiler service)
T11 sequence (P21709 26-976): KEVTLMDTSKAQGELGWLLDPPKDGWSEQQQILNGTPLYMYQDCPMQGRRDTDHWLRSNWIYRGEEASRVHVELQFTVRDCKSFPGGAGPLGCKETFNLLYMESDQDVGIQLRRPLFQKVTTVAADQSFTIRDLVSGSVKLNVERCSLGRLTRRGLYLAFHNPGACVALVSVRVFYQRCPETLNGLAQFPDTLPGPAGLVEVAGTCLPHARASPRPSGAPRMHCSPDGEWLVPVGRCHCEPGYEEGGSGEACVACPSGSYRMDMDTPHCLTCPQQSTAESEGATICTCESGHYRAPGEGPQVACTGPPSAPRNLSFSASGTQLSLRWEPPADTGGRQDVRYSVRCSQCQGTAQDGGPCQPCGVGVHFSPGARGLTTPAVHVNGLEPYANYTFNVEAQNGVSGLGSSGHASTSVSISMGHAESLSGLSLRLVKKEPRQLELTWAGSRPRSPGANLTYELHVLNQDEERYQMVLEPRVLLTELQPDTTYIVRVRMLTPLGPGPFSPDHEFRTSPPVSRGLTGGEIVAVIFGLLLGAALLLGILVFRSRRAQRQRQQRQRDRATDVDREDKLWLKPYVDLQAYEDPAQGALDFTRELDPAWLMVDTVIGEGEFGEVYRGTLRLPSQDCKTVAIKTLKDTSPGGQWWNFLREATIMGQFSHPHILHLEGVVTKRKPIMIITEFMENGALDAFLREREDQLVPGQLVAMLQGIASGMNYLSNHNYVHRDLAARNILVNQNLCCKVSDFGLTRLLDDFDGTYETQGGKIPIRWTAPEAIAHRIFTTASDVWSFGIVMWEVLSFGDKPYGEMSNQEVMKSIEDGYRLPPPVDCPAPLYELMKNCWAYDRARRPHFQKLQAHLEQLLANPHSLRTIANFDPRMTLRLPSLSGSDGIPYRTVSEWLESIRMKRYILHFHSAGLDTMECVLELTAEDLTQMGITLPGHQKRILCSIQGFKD
How it was run: as §1

EphA7 = target: T12, EphA7 (Homo sapiens, UniProt Q15375)
T12 construct: purchased Millipore, Inc. (KinaseProfiler service)
How it was run: as §1

EphB2 = target: T13, EphB2 (Homo sapiens, UniProt P29323)
T13 construct: purchased Millipore, Inc. (KinaseProfiler service)
How it was run: as §1

EphB4 = target: T14, EphB4 (Homo sapiens, UniProt P54760)
T14 construct: purchased Millipore, Inc. (KinaseProfiler service)
How it was run: as §1

FAK2 = target: T15, FAK2 (Homo sapiens, UniProt Q14289)
T15 construct: purchased Millipore, Inc. (KinaseProfiler service)
How it was run: as §1

FGFR3 = target: T16, FGFR3 (Homo sapiens, UniProt P22607)
T16 construct: purchased Millipore, Inc. (KinaseProfiler service)
How it was run: as §1

Fes = target: T17, Fes (Homo sapiens, UniProt P07332)
T17 construct: purchased Millipore, Inc. (KinaseProfiler service)
How it was run: as §1

ITK = target: T18, ITK (Homo sapiens, UniProt Q08881)
T18 construct: purchased Millipore, Inc. (KinaseProfiler service)
How it was run: as §1

JAK3 = target: T19, JAK3 (Homo sapiens, UniProt P52333)
T19 construct: purchased Millipore, Inc. (KinaseProfiler service)
T19 sequence (P52333 whole entry): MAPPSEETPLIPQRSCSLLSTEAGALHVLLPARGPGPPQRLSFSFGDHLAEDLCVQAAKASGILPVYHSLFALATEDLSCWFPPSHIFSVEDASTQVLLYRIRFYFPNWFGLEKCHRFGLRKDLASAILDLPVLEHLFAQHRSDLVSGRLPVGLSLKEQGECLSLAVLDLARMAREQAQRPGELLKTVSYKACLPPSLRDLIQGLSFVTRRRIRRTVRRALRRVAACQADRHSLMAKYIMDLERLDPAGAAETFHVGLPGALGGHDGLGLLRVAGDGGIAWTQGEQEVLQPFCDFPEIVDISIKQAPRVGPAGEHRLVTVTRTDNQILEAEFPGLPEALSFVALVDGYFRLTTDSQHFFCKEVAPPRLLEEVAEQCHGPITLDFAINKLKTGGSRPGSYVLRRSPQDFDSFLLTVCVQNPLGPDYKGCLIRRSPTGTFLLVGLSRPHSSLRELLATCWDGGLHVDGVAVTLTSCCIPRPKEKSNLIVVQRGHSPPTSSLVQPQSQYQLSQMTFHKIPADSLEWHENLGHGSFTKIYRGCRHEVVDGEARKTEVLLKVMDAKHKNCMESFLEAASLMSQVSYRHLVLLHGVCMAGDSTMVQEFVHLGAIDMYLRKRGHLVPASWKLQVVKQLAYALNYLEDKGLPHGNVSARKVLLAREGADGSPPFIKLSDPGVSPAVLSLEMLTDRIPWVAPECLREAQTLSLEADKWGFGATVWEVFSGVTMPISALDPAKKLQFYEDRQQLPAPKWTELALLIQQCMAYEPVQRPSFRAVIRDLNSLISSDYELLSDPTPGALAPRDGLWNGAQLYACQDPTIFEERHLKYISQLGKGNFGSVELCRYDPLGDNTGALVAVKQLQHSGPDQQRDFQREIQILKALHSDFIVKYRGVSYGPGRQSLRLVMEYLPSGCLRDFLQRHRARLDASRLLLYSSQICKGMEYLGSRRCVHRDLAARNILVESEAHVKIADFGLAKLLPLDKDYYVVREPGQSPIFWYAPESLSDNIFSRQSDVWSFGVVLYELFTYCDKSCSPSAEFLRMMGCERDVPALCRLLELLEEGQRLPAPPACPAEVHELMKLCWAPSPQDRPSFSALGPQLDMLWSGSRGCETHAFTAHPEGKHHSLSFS
How it was run: as §1

MEK1 = target: T20, MEK1 (Homo sapiens, UniProt Q02750)
T20 construct: purchased Millipore, Inc. (KinaseProfiler service)
How it was run: as §1

MINK = target: T21, MINK (Homo sapiens, UniProt Q8N4C8)
T21 construct: purchased Millipore, Inc. (KinaseProfiler service)
T21 sequence (Q8N4C8 whole entry): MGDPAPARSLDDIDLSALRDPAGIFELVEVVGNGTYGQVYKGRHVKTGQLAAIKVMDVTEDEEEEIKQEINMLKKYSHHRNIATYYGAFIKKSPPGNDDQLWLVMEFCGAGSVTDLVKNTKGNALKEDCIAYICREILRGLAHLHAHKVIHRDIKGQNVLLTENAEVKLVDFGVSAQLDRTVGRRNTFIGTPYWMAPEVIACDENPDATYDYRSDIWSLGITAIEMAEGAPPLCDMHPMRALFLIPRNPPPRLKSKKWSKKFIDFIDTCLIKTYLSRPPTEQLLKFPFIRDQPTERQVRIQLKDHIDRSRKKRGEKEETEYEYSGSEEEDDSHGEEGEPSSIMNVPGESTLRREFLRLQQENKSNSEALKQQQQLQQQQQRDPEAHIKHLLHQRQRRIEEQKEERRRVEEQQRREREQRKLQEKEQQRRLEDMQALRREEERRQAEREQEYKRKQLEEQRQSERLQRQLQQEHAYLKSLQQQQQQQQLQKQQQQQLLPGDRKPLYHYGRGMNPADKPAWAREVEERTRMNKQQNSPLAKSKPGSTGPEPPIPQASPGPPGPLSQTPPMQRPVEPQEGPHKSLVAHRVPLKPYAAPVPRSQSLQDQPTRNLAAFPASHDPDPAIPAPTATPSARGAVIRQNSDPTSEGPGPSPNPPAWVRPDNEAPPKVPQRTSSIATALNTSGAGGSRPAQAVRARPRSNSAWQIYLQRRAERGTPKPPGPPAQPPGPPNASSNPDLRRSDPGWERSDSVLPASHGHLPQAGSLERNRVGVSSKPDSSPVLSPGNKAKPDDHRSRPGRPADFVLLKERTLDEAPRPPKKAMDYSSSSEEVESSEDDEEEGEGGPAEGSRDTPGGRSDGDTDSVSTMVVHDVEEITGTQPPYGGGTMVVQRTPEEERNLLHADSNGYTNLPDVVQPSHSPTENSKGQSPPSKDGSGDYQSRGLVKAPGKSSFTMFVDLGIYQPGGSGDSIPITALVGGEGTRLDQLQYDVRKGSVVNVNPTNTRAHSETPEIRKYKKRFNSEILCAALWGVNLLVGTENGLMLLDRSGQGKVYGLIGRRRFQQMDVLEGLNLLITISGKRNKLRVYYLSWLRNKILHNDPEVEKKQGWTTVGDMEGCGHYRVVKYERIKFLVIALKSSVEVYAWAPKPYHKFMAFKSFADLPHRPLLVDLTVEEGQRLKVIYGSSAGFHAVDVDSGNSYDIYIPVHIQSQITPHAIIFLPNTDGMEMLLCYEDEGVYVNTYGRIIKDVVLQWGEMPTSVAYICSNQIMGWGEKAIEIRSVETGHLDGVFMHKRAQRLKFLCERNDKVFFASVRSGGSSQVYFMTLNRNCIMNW
How it was run: as §1

MLK1 = target: T22, MLK1 (Homo sapiens, UniProt P80192)
T22 construct: purchased Millipore, Inc. (KinaseProfiler service)
How it was run: as §1

MSK2 = target: T23, MSK2 (Homo sapiens, UniProt O75676)
T23 construct: purchased Millipore, Inc. (KinaseProfiler service)
T23 sequence (O75676 whole entry): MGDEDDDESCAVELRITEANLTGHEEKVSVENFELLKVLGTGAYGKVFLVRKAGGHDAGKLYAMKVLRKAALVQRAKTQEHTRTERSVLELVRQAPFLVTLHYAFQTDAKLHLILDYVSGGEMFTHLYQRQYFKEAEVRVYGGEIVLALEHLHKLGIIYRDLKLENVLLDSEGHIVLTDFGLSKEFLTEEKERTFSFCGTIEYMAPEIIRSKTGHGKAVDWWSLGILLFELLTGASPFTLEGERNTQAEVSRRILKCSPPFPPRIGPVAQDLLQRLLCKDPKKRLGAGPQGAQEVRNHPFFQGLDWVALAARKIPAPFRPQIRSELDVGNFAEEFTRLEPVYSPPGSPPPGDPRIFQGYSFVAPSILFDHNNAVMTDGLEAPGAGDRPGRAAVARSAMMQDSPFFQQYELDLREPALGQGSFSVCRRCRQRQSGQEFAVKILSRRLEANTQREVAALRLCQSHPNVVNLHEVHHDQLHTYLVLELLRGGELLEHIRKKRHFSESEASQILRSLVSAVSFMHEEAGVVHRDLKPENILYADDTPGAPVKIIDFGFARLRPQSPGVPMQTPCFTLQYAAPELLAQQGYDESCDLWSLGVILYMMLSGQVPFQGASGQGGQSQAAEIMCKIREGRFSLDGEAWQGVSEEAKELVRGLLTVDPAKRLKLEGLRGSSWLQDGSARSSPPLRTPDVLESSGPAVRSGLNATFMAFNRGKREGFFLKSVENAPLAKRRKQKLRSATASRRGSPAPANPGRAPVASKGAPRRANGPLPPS
How it was run: as §1

MST2 = target: T24, MST2 (Homo sapiens, UniProt Q13188)
T24 construct: purchased Millipore, Inc. (KinaseProfiler service)
How it was run: as §1

Mer = target: T25, Mer (Homo sapiens, UniProt Q12866)
T25 construct: purchased Millipore, Inc. (KinaseProfiler service)
How it was run: as §1

NEK11 = target: T26, NEK11 (Homo sapiens, UniProt Q8NG66)
T26 construct: purchased Millipore, Inc. (KinaseProfiler service)
How it was run: as §1

NEK3 = target: T27, NEK3 (Homo sapiens, UniProt P51956)
T27 construct: purchased Millipore, Inc. (KinaseProfiler service)
How it was run: as §1

PAK4 = target: T28, PAK4 (Homo sapiens, UniProt O96013)
T28 construct: purchased Millipore, Inc. (KinaseProfiler service)
How it was run: as §1

PDGFRbeta = target: T29, PDGFRbeta (Homo sapiens, UniProt P09619)
T29 construct: purchased Millipore, Inc. (KinaseProfiler service)
How it was run: as §1

PhKgamma2 = target: T30, PhKgamma2 (Homo sapiens, UniProt P15735)
T30 construct: purchased Millipore, Inc. (KinaseProfiler service)
How it was run: as §1

SGK2 = target: T31, SGK2 (Homo sapiens, UniProt Q9HBY8)
T31 construct: purchased Millipore, Inc. (KinaseProfiler service)
How it was run: as §1

SGK3 = target: T32, SGK3 (Homo sapiens, UniProt Q96BR1)
T32 construct: purchased Millipore, Inc. (KinaseProfiler service)
How it was run: as §1

Syk = target: T33, Syk (Homo sapiens, UniProt P43405)
T33 construct: purchased Millipore, Inc. (KinaseProfiler service)
How it was run: (§2)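 Compounds were screened at 10 μM in duplicate against a broad kinase panel, with ATP near the Km of each kinase. Values are percent of control, averaged over the two replicates.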

TAK1 = target: T34, TAK1 (Homo sapiens, UniProt O43318)
T34 construct: purchased Millipore, Inc. (KinaseProfiler service)
T34 sequence (O43318 1-303 limits assumed): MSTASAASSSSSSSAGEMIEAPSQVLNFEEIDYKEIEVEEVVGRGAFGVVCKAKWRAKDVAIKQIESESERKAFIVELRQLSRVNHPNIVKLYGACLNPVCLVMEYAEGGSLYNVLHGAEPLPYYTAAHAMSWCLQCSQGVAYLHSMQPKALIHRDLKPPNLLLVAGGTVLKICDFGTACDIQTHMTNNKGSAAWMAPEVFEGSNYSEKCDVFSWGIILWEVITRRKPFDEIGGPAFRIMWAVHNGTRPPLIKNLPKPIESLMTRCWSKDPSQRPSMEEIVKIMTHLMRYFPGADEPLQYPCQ
How it was run: as §1

TSSK1 = target: T35, TSSK1 (Homo sapiens, UniProt Q9BXA7)
T35 construct: purchased Millipore, Inc. (KinaseProfiler service)
How it was run: as §1

Yes = target: T36, Yes (Homo sapiens, UniProt P07947)
T36 construct: purchased Millipore, Inc. (KinaseProfiler service)
How it was run: as §1

c-RAF = system: c-RAF
How it was run: as §1

mTOR = target: T37, mTOR (Homo sapiens, UniProt P42345)
T37 construct: purchased Millipore, Inc. (KinaseProfiler service)
How it was run: as §2

p38alpha = target: T38, p38alpha (Homo sapiens, UniProt Q16539)
T38 construct: purchased Millipore, Inc. (KinaseProfiler service)
T38 sequence (Q16539 whole entry): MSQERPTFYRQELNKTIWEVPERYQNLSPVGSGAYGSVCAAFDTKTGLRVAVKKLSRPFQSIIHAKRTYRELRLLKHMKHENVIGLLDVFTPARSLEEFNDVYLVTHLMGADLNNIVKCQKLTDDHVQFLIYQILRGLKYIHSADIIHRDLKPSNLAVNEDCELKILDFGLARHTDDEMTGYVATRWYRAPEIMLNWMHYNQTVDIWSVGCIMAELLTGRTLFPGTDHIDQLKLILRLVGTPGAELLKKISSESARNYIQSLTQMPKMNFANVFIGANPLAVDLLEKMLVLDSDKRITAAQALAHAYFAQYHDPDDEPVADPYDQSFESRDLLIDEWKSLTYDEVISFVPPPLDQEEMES
How it was run: as §1

p38delta = target: T39, p38delta (Homo sapiens, UniProt O15264)
T39 construct: purchased Millipore, Inc. (KinaseProfiler service)
How it was run: as §1

p38gamma = target: T40, p38gamma (Homo sapiens, UniProt P53778)
T40 construct: purchased Millipore, Inc. (KinaseProfiler service)
How it was run: as §1

COCc1ccc(C2CCC2)c(CNC(=O)Nc2c(C)c(-c3cnc(C)nc3)nn2-c2ccccc2)c1 [Example 10, 1-(2-cyclobutyl-5-(methoxymethyl)benzyl)-3-(4-methyl-3-(2-methylpyrimidin-5-yl)-1-phenyl-1H-pyrazol-5-yl)urea]
Avg POC AKT3 (AKT3): 102.5 POC
Avg POC ALK4 (ALK4): 111.5 POC
Avg POC Abl2 (Abl2): 95 POC
Avg POC CDK5/p35 (CDK5/p35): 97 POC
Avg POC CDK6/cyclinD3 (CDK6/cyclinD3): 102 POC
Avg POC CDK7/cyclinH/MAT1 (CDK7/cyclinH/MAT1): 96.5 POC
Avg POC CHK2 (CHK2): 93 POC
Avg POC CK1gamma3 (CK1gamma3): 39 POC
Avg POC DAPK1 (DAPK1): 98 POC
Avg POC DAPK3 (DAPK3): 93.5 POC
Avg POC EphA1 (EphA1): 98 POC
Avg POC EphA7 (EphA7): 92.5 POC
Avg POC EphB2 (EphB2): 103 POC
Avg POC EphB4 (EphB4): 140.5 POC
Avg POC FAK2 (FAK2): 96 POC
Avg POC FGFR3 (FGFR3): 104 POC
Avg POC Fes (Fes): 90 POC
Avg POC ITK (ITK): 112 POC
Avg POC JAK3 (JAK3): 94.5 POC
Avg POC MEK1 (MEK1): 121 POC
Avg POC MINK (MINK): 139.5 POC
Avg POC MLK1 (MLK1): 100.5 POC
Avg POC MSK2 (MSK2): 110.5 POC
Avg POC MST2 (MST2): 97.5 POC
Avg POC Mer (Mer): 87.5 POC
Avg POC NEK11 (NEK11): 102 POC
Avg POC NEK3 (NEK3): 97.5 POC
Avg POC PAK4 (PAK4): 102.5 POC
Avg POC PDGFRbeta (PDGFRbeta): 106 POC
Avg POC PhKgamma2 (PhKgamma2): 118 POC
Avg POC SGK2 (SGK2): 80.5 POC
Avg POC SGK3 (SGK3): 92.5 POC
Avg POC Syk (Syk): 79.5 POC
Avg POC TAK1 (TAK1): 86 POC
Avg POC TSSK1 (TSSK1): 60 POC
Avg POC Yes (Yes): 88.5 POC
Avg POC c-RAF (c-RAF): 90 POC
Avg POC mTOR (mTOR): 75 POC
Avg POC p38alpha (p38alpha): 91.5 POC
Avg POC p38delta (p38delta): 81 POC
Avg POC p38gamma (p38gamma): 102.5 POC

COCc1ccc(C(F)(F)F)c(CNC(=O)Nc2c(C)c(-c3cnn(C)c3)nn2-c2ccccc2)c1 [Example 33, 1-(1′,4-dimethyl-1-phenyl-1H,1′H-[3,4′-bipyrazol]-5-yl)-3-(5-(methoxymethyl)-2-(trifluoromethyl)benzyl)urea]
Avg POC AKT3 (AKT3): 124 POC
Avg POC ALK4 (ALK4): 106 POC
Avg POC Abl2 (Abl2): 139.5 POC
Avg POC CDK5/p35 (CDK5/p35): 108.5 POC
Avg POC CDK6/cyclinD3 (CDK6/cyclinD3): 108 POC
Avg POC CDK7/cyclinH/MAT1 (CDK7/cyclinH/MAT1): 113.5 POC
Avg POC CHK2 (CHK2): 138 POC
Avg POC CK1gamma3 (CK1gamma3): 119.5 POC
Avg POC DAPK1 (DAPK1): 141.5 POC
Avg POC DAPK3 (DAPK3): 113 POC
Avg POC EphA1 (EphA1): 90 POC
Avg POC EphA7 (EphA7): 94.5 POC
Avg POC EphB2 (EphB2): 112.5 POC
Avg POC EphB4 (EphB4): 128 POC
Avg POC FAK2 (FAK2): 108 POC
Avg POC FGFR3 (FGFR3): 116 POC
Avg POC Fes (Fes): 109 POC
Avg POC ITK (ITK): 124 POC
Avg POC JAK3 (JAK3): 114 POC
Avg POC MEK1 (MEK1): 117 POC
Avg POC MINK (MINK): 100 POC
Avg POC MLK1 (MLK1): 105.5 POC
Avg POC MSK2 (MSK2): 207.5 POC
Avg POC MST2 (MST2): 98 POC
Avg POC Mer (Mer): 96.5 POC
Avg POC NEK11 (NEK11): 108 POC
Avg POC NEK3 (NEK3): 115.5 POC
Avg POC PAK4 (PAK4): 108.5 POC
Avg POC PDGFRbeta (PDGFRbeta): 166.5 POC
Avg POC PhKgamma2 (PhKgamma2): 116 POC
Avg POC SGK2 (SGK2): 208 POC
Avg POC SGK3 (SGK3): 150 POC
Avg POC Syk (Syk): 123.5 POC
Avg POC TAK1 (TAK1): 88.5 POC
Avg POC TSSK1 (TSSK1): 80 POC
Avg POC Yes (Yes): 113 POC
Avg POC c-RAF (c-RAF): 94.5 POC
Avg POC mTOR (mTOR): 99 POC
Avg POC p38alpha (p38alpha): 88.5 POC
Avg POC p38delta (p38delta): 85 POC
Avg POC p38gamma (p38gamma): 107.5 POC
